Molecular target: T1, Slco1a4 (Mus musculus, UniProt Q9EP96)
T1 sequence (Q9EP96 1-670): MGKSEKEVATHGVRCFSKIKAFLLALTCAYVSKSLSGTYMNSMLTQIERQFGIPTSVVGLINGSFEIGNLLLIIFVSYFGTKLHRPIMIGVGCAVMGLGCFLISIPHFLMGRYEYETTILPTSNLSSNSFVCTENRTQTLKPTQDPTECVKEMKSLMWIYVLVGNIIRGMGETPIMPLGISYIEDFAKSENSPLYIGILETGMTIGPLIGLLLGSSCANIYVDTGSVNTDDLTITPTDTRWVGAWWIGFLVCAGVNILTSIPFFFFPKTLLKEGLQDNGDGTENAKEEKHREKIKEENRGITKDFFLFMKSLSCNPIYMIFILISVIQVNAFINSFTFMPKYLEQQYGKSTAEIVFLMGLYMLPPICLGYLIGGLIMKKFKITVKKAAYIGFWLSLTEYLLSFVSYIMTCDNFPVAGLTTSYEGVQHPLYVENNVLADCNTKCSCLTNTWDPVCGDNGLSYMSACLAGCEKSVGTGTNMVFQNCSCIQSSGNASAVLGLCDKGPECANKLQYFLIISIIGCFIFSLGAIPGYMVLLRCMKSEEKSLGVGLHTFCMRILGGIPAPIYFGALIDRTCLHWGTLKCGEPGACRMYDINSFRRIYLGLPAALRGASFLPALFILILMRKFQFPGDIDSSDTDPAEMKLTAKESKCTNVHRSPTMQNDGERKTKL
Assay: In vivo two-photon imaging in Slco1a4 knockout mice (Oatp1a/1b cluster knockout)
Parameters: FLAG; expressed in transfected cells; host or cells: cortical neurons of live mice, in utero electroporation at E14/E15
Protocol: Briefly, animals are anaesthetized via intraperitoneal injections of ketamine/xylazine or via inhaled isoflurane. A region of the skull (3×3 mm) is gently removed with a high-speed drill and the underlying dura is removed. A small glass coverslip is placed over the skull to allow long term optical access for in vivo imaging. Labeling with fluorescent dyes is performed either via intravenous injections or topically application to the cortical surface for 20 min prior to glass cover placement. After recovery, in vivo images are acquired using a two-photon microscope (Bruker Technologies) equipped with a multimodal (fixed wavelength 1040 nm and tunable wavelength) InSight X3 two-photon laser (Spectra Physics) and 20× water immersion objective (Zeiss 1.0N.A.). The two-photon laser is appropriately tuned to excite particular fluorescent dyes and proteins as needed. In selected cases, following in vivo imaging, mice will be sacrificed and perfused for follow up immunohistochemistry and high-resolution confocal imaging (Leica SP8) to further confirm colocalization of dyes and cells expressing particular transporters.
One-month-old wild-type mice were anesthetized using a ketamine/xylazine solution at doses of 100 mg/kg and 10 mg/kg, respectively. The fur around the skull area was shaved, and buprenex (0.1 mg per kg) and carprofen (5 mg per kg) were administered subcutaneously. Mice were kept on a heating pad at 37° C., and anesthesia was periodically monitored. The skin was treated with povidone-iodine solution, followed by cleaning with ethanol, and eye ointment was applied. A small skin section was excised to expose the skull. Thinning of the skull was performed in a circular area, followed by delicately lifting of the remaining skull without harm to the underlying brain. Within the circular region, the dura was gently removed using fine forceps, and a 4 mm cover glass was softly pressed onto the brain surface and affixed to the skull. […]

Compound | astrocyte uptake in knockout mice (Oatp1a/1b cluster knockout) | endothelial uptake in Slco1a4 knockout mice (application to cortical surface, concentration not given) | endothelial uptake in Slco1a4 knockout mice (topical cortical administration 50 μM, compared to wildtype)
O=S(=O)([O-])c1cc(S(=O)(=O)O)ccc1C1=c2cc3c4c(c2Oc2cc(Br)ccc21)CCC[N+]=4CCC3 [Compound 1, 2-(12-bromo-1,2,3,5,6,7-hexahydrochromeno[2,3-f]pyrido[3,2,1-ij]quinolin-4-ium-9-yl)-5-sulfobenzenesulfonate] | Astrocyte uptake is seen in the knockout mice | complete disappearance of endothelial uptake | –
COc1cc2c(c(OC)c1OC)-c1ccc(OC)c(=O)cc1C(NS(=O)(=O)c1ccc(-c3c4ccc(N(C)C)cc4[o+]c4cc(N(C)C)ccc34)c(S(=O)(=O)[O-])c1)CC2 (stereo not drawn) [Compound 47, 2-(3,6-bis(dimethylamino)xanthylium-9-yl)-5-(N-(1,2,3,10-tetramethoxy-9-oxo-5,6,7,9-tetrahydrobenzo[a]heptalen-7-yl)sulfamoyl)benzenesulfonate] | – | – | complete elimination of Colchicine-eEDiTS uptake

Reference: patent US20260272895A1, “METHODS AND KITS FOR DELIVERY OF COMPOUNDS INTO CELLS” (Yale University, priority 2023, published 2026)
